For 18 compounds, EC50 and IC50 results are on record in patent US11414384B2, “P300/CBP hat inhibitors” (Constellation Pharmaceuticals, Inc., priority 2018, dated 2022).

Broadly, the EC50 is the midpoint of the concentration-response curve. A lower EC50 goes with a more potent agent. Usually IC50 stands for the midpoint of a concentration-inhibition curve.

Experiment [1] deals with acetylation of chromatin at H3K18 (catalyzed by p300 and CBP) in HCT-116 cells. Kind of experiment: H3K18Ac MSD cellular assay. Format: cell-based. The settings on record: 2 hr treatment, average of at least 2 replicate titrations. How it is done: Select compounds were also evaluated in a H3K18Ac MSD cellular assay that measures the ability of compounds to inhibit the acetylation of chromatin at H3K18, a process catalyzed by p300 and CBP. In a typical experiment the p300 HAT inhibitory activity inside cells of the compounds described herein was determined in accordance with the following experimental method. 20 k HCT-116 cells per well are plated in 75 μL RPMI+10% FBS media the night before treatment. Compounds plated in DMSO at 4× final concentration are resuspended in 30 μL RPMI+10% FBS, then 25 μL is combined with corresponding wells containing cells. Treated cells are incubated for 2 hr at 37° C., then lysed in 500 μL final volume and frozen at −80° C. MSD plates (Meso Scale Discovery) are coated overnight at 4° C. with 60 μL 1:500α-total histone antibody (Millipore MAB3422) in PBS. Plates are then blocked with 5% BSA in TBST shaking at RT for 1 hr, washed, and 30 μL lysate added to each well for 2 hr shaking at RT. Plates are washed and 25 μL 1:216α-H3K18ac antibody (CST 9675) in PBS added, then incubated for 1 hr shaking at RT. Plates are washed again, then 25 μL 1:1000 Sulfo-Tag goat a-rabbit antibody (Meso Scale Discovery R32Ab-1) in PBS is added for 1 hr shaking at RT. Plates are washed once more, then 150 μL 1× Read Buffer (MSD #R92TD-3) is added to all wells and read on MSD SECTOR Imager 2400 using the conventional read setup.

Experiment [2] concerns the target p300 HAT domain (residues 1287-1666) (Homo sapiens (Human), UniProt Q09472). Put plainly: p300 HAT SPA assay (scintillation proximity assay, acetylation of biotinylated H3(1-21) peptide). Format: biochemical. The settings on record: p300 HAT domain; average of at least 2 replicate titrations; read-out: P300 HAT SPA IC50. In short, it runs like this: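 Purified p300 HAT domain reaction transferred to streptavidin plates to capture biotinylated H3(1-21) peptide, incubated 1.5 hr at RT, and read by scintillation proximity. IC50 values derived from concentration-response data.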
In general terms: Scintillation proximity formats need no separation of bound from free tracer.

A value given as a limit tells only on which side of the number the result lay.

Sequence of p300 HAT domain (residues 1287-1666) (Q09472 1287-1666): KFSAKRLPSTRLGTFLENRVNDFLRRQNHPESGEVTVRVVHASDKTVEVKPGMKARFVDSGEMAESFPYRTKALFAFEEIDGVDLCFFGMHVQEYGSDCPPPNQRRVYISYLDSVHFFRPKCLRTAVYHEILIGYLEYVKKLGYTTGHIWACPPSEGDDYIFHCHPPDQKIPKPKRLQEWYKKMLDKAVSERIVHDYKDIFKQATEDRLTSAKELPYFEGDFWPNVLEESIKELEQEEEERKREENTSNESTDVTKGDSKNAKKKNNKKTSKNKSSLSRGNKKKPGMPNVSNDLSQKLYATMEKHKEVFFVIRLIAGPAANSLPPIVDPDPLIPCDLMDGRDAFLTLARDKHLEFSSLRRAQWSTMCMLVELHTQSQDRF

In experiment [1], `CC(CNC(C(=O)c1c[nH]c2ccccc12)c1ccccc1)c1ccc(Cl)cc1` (single isomer, unassigned) [26 Isomer 1] came in with an EC50 above 10000 nM. Further, in experiment [2], the IC50 is above 30000 nM.
Take `CCC(CNC(C(=O)c1c[nH]c2ccccc12)c1ccccc1)c1ccc(Cl)cc1` (single isomer, unassigned) [59 Isomer 4]: it took 829 nM to reach a half-maximal effect in experiment [1] (Homo sapiens, HCT-116, 2 h) (EC50). In addition, the IC50 in experiment [2] was found to be 827 nM.
In turn, `Cc1ncc(-c2ccc3c(C(=O)C(NCCc4ccc(Cl)cc4)c4ccccc4)c[nH]c3c2)[nH]1` (single isomer, unassigned) [110 Isomer 2] had an EC50 in experiment [1] (Homo sapiens, HCT-116, 2 h) of 308 nM. The IC50 in experiment [2] was found to be 258 nM.
For `N#Cc1ccc(CCNC(C(=O)c2c[nH]c3cc(-c4cn[nH]c4)ccc23)c2ccccc2)cc1` (single isomer, unassigned) [98 Isomer 2] the same measures were 18.6 nM and 58.3 nM.
As for `N#Cc1ccc(CCNC(C(=O)c2c[nH]c3cc(C(=O)NC4COC4)ccc23)c2ccccc2)cc1` (single isomer, unassigned) [174 Isomer 2], it took 98.3 nM to reach a half-maximal effect in experiment [1] (EC50). For the same compound, the IC50 in experiment [2] worked out at 39 nM.
Compound `N#Cc1ccc(CCNC(C(=O)c2c[nH]c3cc(C(=O)NC4CS(=O)(=O)C4)ccc23)c2ccccc2)cc1` (single isomer, unassigned) [166 Isomer 2] gave an EC50 in experiment [1] (Homo sapiens, HCT-116, 2 h) of 112 nM. For the same compound, the IC50 in experiment [2] is 28.8 nM.
Take `Cc1ccc2c(C(=O)C(NCCc3ccc(F)cc3)c3ccccc3)c[nH]c2c1` (single isomer, unassigned) [48 Isomer 2]: it took 3200 nM to reach a half-maximal effect in experiment [1] (Homo sapiens, HCT-116, 2 h) (EC50). Also, the IC50 in experiment [2] came out at 3340 nM.
In turn, `Cn1cnc(-c2ccc3c(C(=O)[C@@H](NCCc4ccc(C(N)=O)cc4)c4ccccc4)c[nH]c3c2)c1` (single isomer, unassigned) [177 Isomer 2] came in with an EC50 in experiment [1] (Homo sapiens, HCT-116, 2 h) of 1270 nM. Further, the IC50 in experiment [2] is 838 nM.
In turn, `N#Cc1ccc(CCNC(C(=O)c2c[nH]c3cc(C(=O)NC4COC4)ccc23)c2ccccc2)cc1` (single isomer, unassigned) [174 Isomer 1] showed an EC50 in experiment [1] above 1000 nM. In experiment [2], the half-inhibitory concentration (IC50) was 965 nM.
Turning to `CC(Cc1ccc(Cl)cc1Cl)NC(C(=O)c1c[nH]c2cc(-c3cnn(C)c3)ccc12)c1ccccc1` (single isomer, unassigned) [97 Isomer 1], the half-maximal effective concentration (EC50) in experiment [1] was 135 nM. Moreover, the IC50 in experiment [2] came to 437 nM.
`N#Cc1ccc(CCNC(C(=O)c2c[nH]c3ccccc23)c2ccccc2)cc1` (single isomer, unassigned) [58 Isomer 2]: the EC50 in experiment [1] (Homo sapiens, HCT-116, 2 h) came to 477 nM. Moreover, the IC50 in experiment [2] came out at 201 nM.
Take `O=C(c1c[nH]c2cc(-c3cccnc3)ccc12)C(NCCc1ccc(Cl)cc1)c1ccccc1` (single isomer, unassigned) [90 Isomer 2]: in experiment [1] (Homo sapiens, HCT-116, 2 h), the EC50 was determined as 80 nM. Also, the IC50 in experiment [2] is 591 nM.
The corresponding values for `O=C(c1c[nH]c2ccccc12)C(NCCc1ccc(Cl)cc1Cl)c1ccccc1` (single isomer, unassigned) [19 Isomer 2] are 282 nM and 706 nM.
As for `Cc1cccc2c(C(=O)C(NC(C)Cc3ccc(Cl)cc3Cl)c3ccccc3)c[nH]c12` (single isomer, unassigned) [68 Isomer 1], in experiment [1] (Homo sapiens, HCT-116, 2 h), the EC50 was determined as 666 nM. The concentration for half-maximal inhibition (IC50) in experiment [2] turned out to be 728 nM.
For the compound `N#Cc1ccc(CCNC(C(=O)c2c[nH]c3cc(C(=O)NCC(F)(F)F)ccc23)c2ccccc2)cc1` (single isomer, unassigned) [157 Isomer 2], the EC50 in experiment [1] (Homo sapiens, HCT-116, 2 h) stood at 36.4 nM. In addition, in experiment [2], the IC50 worked out at 66 nM.
As for `Cn1cnc(-c2ccc3c(C(=O)C(NCCc4ccc(S(N)(=O)=O)cc4)c4ccccc4)c[nH]c3c2)c1` (single isomer, unassigned) [115 Isomer 2], the EC50 in experiment [1] (Homo sapiens, HCT-116, 2 h) turned out to be 530 nM. Further, in experiment [2], the IC50 stood at 389 nM.
In experiment [1], `CC(Cc1ccc(Cl)cc1Cl)NC(C(=O)c1c[nH]c2cc(-c3cnn(C)c3)ccc12)c1ccccc1` (single isomer, unassigned) [97 Isomer 3] yielded an EC50 above 10000 nM. Also, the IC50 in experiment [2] was above 30000 nM.
For the compound `CC(Cc1ccc(Cl)cc1Cl)NC(C(=O)c1c[nH]c2cc(-c3cnn(C)c3)ccc12)c1ccccc1` (single isomer, unassigned) [97 Isomer 4], the EC50 in experiment [1] was above 10000 nM. Moreover, the IC50 in experiment [2] came out at 6710 nM.
